Test results published in PubChem BioAssay AID1963829 (Molecular Pharmacology Branch, DTP, NCI, 2024).

System: 935938-334-R-J1-PDC complex spheroid viability
Assay: Anticancer human tumor 935938-334-R-J1-PDC patient-derived small intestine adenocarcinoma cell line growth inhibition [POLQ]
Conditions: for IC50: curve of first compound; for viability, T/C: stronger effect = lower value; active = viability on the fitted dose curve at most 10% of control; inactive = the rest
Description: Multicellular complex tumor spheroid response to Polymerase (POL) inhibitors (novobiocin, ART-558, RP6685) in combination with a variety of drugs and investigational agents in selected tumor cell lines
The POL inhibitors (novobiocin, ART-558, and RP6685) were evaluated both individually and in combination with standard of care and investigational anticancer small molecules within a complex spheroid model of solid tumors. . Complex spheroids include a stromal component modeled by human endothelial cells (HUVEC) and fibroblasts modeled by human mesenchymal stem cells (MSCs). The concentration ranges selected for each drug and investigational agent were based upon clinically achievable concentrations if the clinical Cmax of the agent was known.
Compounds. The drugs and investigational agents: novobiocin (NSC847541), ART-558 (NSC835418), RP-6685 (NSC848927), peposertib (NSC802822), ceralasertib (NSC780249), elimusertib (NSC800525), camonsertib (NSC841442), AZD-1390 (NSC803789), olaparib (NSC753686), talazoparib (NSC767125), rucaparib (NSC756644), sotorasib (NSC818433), MRTX-1133 (NSC836407), SN-38 (NSC673596), topotecan (NSC609699), epotoside (NSC141540), doxorubicin (NSC123127), gemcitabine (NSC613327), 5-fluorouracil (NSC19893), paclitaxel (NSC125973), vemurafenib (NSC761431), MSA-2 (NSC828583), SN-011 (NSC837082), adavosertib (NSC754352), prexasertib (NSC758257), carboplatin (NSC241240) and oxaliplatin (NSC266046), were obtained from the National Cancer Institute (NCI) Developmental Therapeutics Program Chemical Repository (21). The FDA-approved anticancer drug set is available from the Developmental Therapeutics Program at https://dtp.cancer.gov/organization/dscb/obtaining/. […] The stock solutions were prepared in dimethyl sulfoxide (DMSO, Sigma-Aldrich, St. Louis, MO, cat. D2650), except for the platinum compounds which were prepared in saline (Quality Biological, Gaithersburg, MD, cat. 114-055-101), at 800-fold the tested concentration and stored at -70 degrees C prior to their use. All drugs and investigational agents were tested over a range starting from a high concentration at or near the clinical Cmax and decreasing in half-log increments. If the clinical Cmax for an agent had not been determined, the highest concentration tested was 10 microM, except for SN-38, which was tested at a high concentration of 1 microM.
Cell Culture. All cells were maintained in an incubator at 37 degrees C and 5% CO2 with 95% humidity. The PDC lines were cultured according to standard operating procedures established by the NCI PDMR (https://pdmr.cancer.gov). Table 3 of the manuscript, lists the cell lines along with the number of the three cell types plated to form the mct-spheroids and media for tumor cell growth. After thawing, all PDC lines, except 997537-175-T-J1-PDC and 415267-285-R-J2-PDC, were cultured in Matrigel-coated flasks prepared with a working solution of 1X Ham's F-12 nutrient mix, without supplementation (Thermo Fisher Scientific, cat. 11765054), 100 U/mL penicillin-streptomycin (Thermo Fisher Scientific, cat. 15140122), and 2.5% Matrigel (Corning Inc., Corning, NY, cat. 354248) for the first three passages. The two PDC lines 997537-175-T-J1-PDC and 415267-285-R-J2-PDC were cultured on uncoated flasks. The 857933-349-R-J2-PDC line was cultured in 6C/Colon 1B media containing advanced DMEM/F-12 (Thermo Fisher Scientific, cat. 12634028), 10 mM HEPES (Thermo Fisher Scientific, cat. 15630080), 1X GlutaMAX supplement (Thermo Fisher Scientific, cat. 35050061), 0.1 mg/mL primocin (InvivoGen, San Diego, CA, cat. ant-pm-2), 10% defined fetal bovine serum, heat inactivated (HyClone Laboratories Inc., Logan, UT, cat. SH30070.03HI), 50% L-WRN conditioned media (ATCC, cat. CRL-3276), 1.25 mM N-Acetyl-L-cysteine (Sigma-Aldrich, cat. A9165), 10 mM nicotinamide (Sigma-Aldrich, cat. N0636), 1X B-27 supplement (Thermo Fisher Scientific, cat. 17504044), 1X N-2 supplement (Thermo Fisher Scientific, cat. […]

[1] = second compound 0.0316 µM, first compound 0.00316 µM
[2] = second compound 0.0316 µM, first compound 0.01 µM
[3] = second compound 0.0316 µM, first compound 0.0316 µM
[4] = second compound 0.0316 µM, first compound 0.1 µM
[5] = second compound 0.1 µM, first compound 0.00316 µM
[6] = second compound 0.1 µM, first compound 0.01 µM
[7] = second compound 0.1 µM, first compound 0.0316 µM
[8] = second compound 0.1 µM, first compound 0.1 µM
[9] = second compound 0.316 µM, first compound 0.00316 µM
[10] = second compound 0.316 µM, first compound 0.01 µM
[11] = second compound 0.316 µM, first compound 0.0316 µM
[12] = second compound 0.316 µM, first compound 0.1 µM
[13] = second compound 1 µM, first compound 0.00316 µM
[14] = second compound 1 µM, first compound 0.01 µM
[15] = second compound 1 µM, first compound 0.0316 µM
[16] = second compound 1 µM, first compound 0.1 µM
[17] = second compound 3.16 µM, first compound 0.00316 µM
[18] = second compound 3.16 µM, first compound 0.01 µM
[19] = second compound 3.16 µM, first compound 0.0316 µM
[20] = second compound 3.16 µM, first compound 0.1 µM
[21] = second compound 10 µM, first compound 0.00316 µM
[22] = second compound 10 µM, first compound 0.01 µM
[23] = second compound 10 µM, first compound 0.0316 µM
[24] = second compound 10 µM, first compound 0.1 µM
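Note: spheroids exposed to drugs for seven days before viability read.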
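Throughout, for viability, T/C: 100% = DMSO vehicle control wells.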

CC[C@@]1(O)C(=O)OCc2c1cc1n(c2=O)Cc2cc3c(CN(C)C)c(O)ccc3nc2-1 + COC1C(OC(N)=O)C(O)C(Oc2ccc3c(O)c(NC(=O)c4ccc(O)c(CC=C(C)C)c4)c(=O)oc3c2C)OC1(C)C
90.3 nM: IC50 (second compound 1 µM)
91.5 nM: IC50 (second compound 3.16 µM)
inactive: viability, T/C (second compound 0.0316 µM, first compound 0.000316 µM) 90.7% | viability, T/C (second compound 0.0316 µM, first compound 0.001 µM) 81.6% | viability, T/C [1] 98.1% | viability, T/C [2] 92.1% | viability, T/C [3] 86.1% | viability, T/C [4] 56.5% | viability, T/C (second compound 0.1 µM, first compound 0.000316 µM) 94.2% | viability, T/C (second compound 0.1 µM, first compound 0.001 µM) 81.4% | viability, T/C [5] 100% | viability, T/C [6] 90.9% | viability, T/C [7] 79% | viability, T/C [8] 43% | viability, T/C (second compound 0.316 µM, first compound 0.000316 µM) 94.7% | viability, T/C (second compound 0.316 µM, first compound 0.001 µM) 72.9% | viability, T/C [9] 103% | viability, T/C [10] 97.7% | viability, T/C [11] 94.8% | viability, T/C [12] 47.2% | viability, T/C (second compound 1 µM, first compound 0.000316 µM) 109% | viability, T/C (second compound 1 µM, first compound 0.001 µM) 83.1% | viability, T/C [13] 76.4% | viability, T/C [14] 74.8% | viability, T/C [15] 97.3% | viability, T/C [16] 46.3% | viability, T/C (second compound 3.16 µM, first compound 0.000316 µM) 127% | viability, T/C (second compound 3.16 µM, first compound 0.001 µM) 76.6% | viability, T/C [17] 79.3% | viability, T/C [18] 77% | viability, T/C [19] 104% | viability, T/C [20] 46.4% | viability, T/C (second compound 10 µM, first compound 0.000316 µM) 109% | viability, T/C (second compound 10 µM, first compound 0.001 µM) 133% | viability, T/C [21] 89.3% | viability, T/C [22] 67.2% | viability, T/C [23] 71.7% | viability, T/C [24] 49.3%
80.8 nM: IC50 (second compound 0.1 µM)
> 100 nM: IC50 (second compound 0.0316 µM) | IC50 (second compound 10 µM)
93.3 nM: IC50 (second compound 0.316 µM)

CCc1c2c(nc3ccc(O)cc13)-c1cc3c(c(=O)n1C2)COC(=O)[C@]3(O)CC + COC1C(OC(N)=O)C(O)C(Oc2ccc3c(O)c(NC(=O)c4ccc(O)c(CC=C(C)C)c4)c(=O)oc3c2C)OC1(C)C
inactive: viability, T/C [1] 82% | viability, T/C [2] 59.3% | viability, T/C [3] 38% | viability, T/C [4] 29.4% | viability, T/C (second compound 0.0316 µM, first compound 0.316 µM) 22.9% | viability, T/C (second compound 0.0316 µM, first compound 1 µM) 27.8% | viability, T/C [5] 75.8% | viability, T/C [6] 73.7% | viability, T/C [7] 40.1% | viability, T/C [8] 29.6% | viability, T/C (second compound 0.1 µM, first compound 0.316 µM) 28.7% | viability, T/C (second compound 0.1 µM, first compound 1 µM) 30.5% | viability, T/C [9] 68% | viability, T/C [10] 63.8% | viability, T/C [11] 36.2% | viability, T/C [12] 27.3% | viability, T/C (second compound 0.316 µM, first compound 0.316 µM) 29% | viability, T/C (second compound 0.316 µM, first compound 1 µM) 22.4% | viability, T/C [13] 62.9% | viability, T/C [14] 76.8% | viability, T/C [15] 31.5% | viability, T/C [16] 26.8% | viability, T/C (second compound 1 µM, first compound 0.316 µM) 29.3% | viability, T/C (second compound 1 µM, first compound 1 µM) 22.9% | viability, T/C [17] 73.1% | viability, T/C [18] 57.4% | viability, T/C [19] 31.6% | viability, T/C [20] 30.2% | viability, T/C (second compound 3.16 µM, first compound 0.316 µM) 27.8% | viability, T/C (second compound 3.16 µM, first compound 1 µM) 28.4% | viability, T/C [21] 53.2% | viability, T/C [22] 49.2% | viability, T/C [23] 34.2% | viability, T/C [24] 30.1% | viability, T/C (second compound 10 µM, first compound 0.316 µM) 31.8% | viability, T/C (second compound 10 µM, first compound 1 µM) 31.3%
5.3 nM: IC50 (second compound 10 µM)
17.8 nM: IC50 (second compound 0.316 µM)
16.6 nM: IC50 (second compound 0.0316 µM)
22.6 nM: IC50 (second compound 0.1 µM)
18.2 nM: IC50 (second compound 1 µM)
13.9 nM: IC50 (second compound 3.16 µM)
